Data on 31 molecules can be found in patent US20230233425A1, “USE OF VOLATILE COMPOSITIONS TO LIMIT OR ELIMINATE THE PERCEPTION OF MALODOR” (Firmenich SA, priority 2017, published 2023).

Test [1] deals with geonol earthy/moss odor perception. The test can be described thus: Human sensory performance of test compounds with and without geonol. Type of test: in vivo. The settings on record: for % Earthy/Moss Odor: Test Compound Only. The source says: Sensory Evaluation: Five 16 oz glass jars containing either REF (geonol only), geonol only control, antagonist only, mixture of geonol and isointense antagonist, or mixture of geonol and low intensity antagonist were presented to the panelists (last four samples were randomized across panelists). The panelists were asked to familiarize themselves with the earthy/moss odor quality from the REF jar first, then rate the pleasantness, earthy/moss odor intensity and overall odor intensity of the next four samples on a 0-10 linear scale. The inter-stimulus interval between the samples was two minutes to avoid adaptation. […]
The results are shown in Tables 16 and 17, and FIGS. 3 to 5.

In test [2] the target is T1, OR51E1 olfactory receptor (Homo sapiens, UniProt Q8TCB6).
T1 construct: expressed in transfected cells
T1 sequence (Q8TCB6 1-318): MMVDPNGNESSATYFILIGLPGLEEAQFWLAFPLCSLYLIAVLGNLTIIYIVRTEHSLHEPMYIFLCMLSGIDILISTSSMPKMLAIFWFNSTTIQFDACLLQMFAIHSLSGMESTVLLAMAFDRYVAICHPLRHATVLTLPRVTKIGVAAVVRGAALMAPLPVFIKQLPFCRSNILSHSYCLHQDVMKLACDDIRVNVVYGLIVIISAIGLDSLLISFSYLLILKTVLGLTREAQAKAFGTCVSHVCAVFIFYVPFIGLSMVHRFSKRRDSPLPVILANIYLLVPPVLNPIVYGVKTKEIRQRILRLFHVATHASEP
The test can be described thus: Butyric acid olfactory receptor antagonist cell-based dose-response vs butyric acid EC80. Particulars: butyric acid at EC80; Table 5.

For test [3], the system named is OR2W1 or the OR1A1 olfactory receptor. The test can be described thus: 1-octen-3-ol olfactory receptor antagonist cell-based dose-response vs 1-octen-3-ol EC80. The settings on record: for IC50: 1-octen-3-ol at EC80; for % Inhibition: maximum inhibition normalized to baseline agonist activity.
From the text: Each cell line was screened with a volatile compound library for their inhibitory properties and potential 1-octen-3-ol smell inhibition.
Single concentration monitoring of the 1-octen-3-ol induced cell activity in the presence or absence of a test compound allowed for the identification of compounds with a putative suppression or inhibitory effect.
The subject of test [4] is geonol receptors Olfr339, Olfr1487, Olfr1A1, OR11A1, Olfr96. The test can be described thus: Antagonists of geonol receptors (Example 11). It is filed as cell-based, mouse and human. The arrangement: Inhibition(%): concentration or dose not given beside the values. The settings on record: Table 18.
For test [5], the system named is OR11A1, or the OR2M3 olfactory receptor. The test is described as follows: Geonol olfactory receptor antagonist cell-based screening, inhibitory dose-response vs geonol EC80. The arrangement: species or system human. Particulars: geonol at EC80.
Test [6] relates to 1-octen-3-ol mushroom/earthy/fungal odor perception. The test is described as follows: Human sensory performance of test compounds with and without 1-octen-3-ol. It is filed as in vivo. The settings on record: for % Mushroom/Earthy/Fungal Odor: Test Compound Only.
For test [7], the system named is 1-octen-3-ol receptors OR2W1, Olfr93, Olfr120, Olfr398. The test can be described thus: Antagonists of 1-octen-3-ol receptors (Example 11). It is filed as cell-based, mouse and human. Details: Inhibition(%): concentration or dose not given beside the values. Particulars: Table 19.
Where [8] appears, read: Low Dilution Test Compound + Geonol (0.1%).
[9] abbreviates: Medium Dilution Test Compound + Geonol (0.1%).
Setting [10] is: Low Dilution Test Compound + 1-octen-3-ol (0.15%).
[11] abbreviates: Medium Dilution Test Compound + 1-octen-3-ol (0.15%).

Where two headings read alike, the source gives them in different places.

For `CCC(=CC[C@@H]1CC=C(C)C1(C)C)CO`, the “% Earthy/Moss Odor Remaining” value was 85.20% in test [1] (setting [8]) and 64.30% in test [1] (setting [9]). Moreover, in test [1], the “% Earthy/Moss Odor” value was 34.90%.

The IC50 is the concentration that inhibits the measured activity by half. The % Inhibition is the drop in the measured response relative to a control, in per cent. Regarding `C=C1CC[C@H]2O[C@]2(C)CC[C@@H]2[C@@H]1CC2(C)C`, the midpoint of inhibition in test [2], the IC50, lay at 97 µM. In addition, in test [3], the IC50 was found to be 25.1 µM and the “% Inhibition” value was 123.63%.

As for `CC1=C[C@@H](C)[C@@H](C=O)CC1`, the “% Earthy/Moss Odor Remaining” value in test [1] (setting [8]) was found to be 80.60%; in test [1] (setting [9]), 71.50%. Besides, in test [1], the “% Earthy/Moss Odor” value amounted to 48.10%.

As for `CC(=O)O[C@H]1CCCC[C@@H]1C(C)(C)C`, the “% Earthy/Moss Odor” value in test [1] was 15.30%. In addition, in test [4], the IC50 came to 164 µM and the “Inhibition(%)” value worked out at 56%.

As to “1-(4,8-dimethyl-12-methylidenecyclododeca-4,8-dien-1-yl)ethanone; 1-(2,6,10-trimethylcyclododeca-1,5,9-trien-1-yl)ethanone; 1-(2,6,10-trimethylcyclododeca-2,5,9-trien-1-yl)ethanone”, the entries for the “% Inhibition” value in test [5] and in test [3] were 20% and 113.23%, respectively. Moreover, the IC50 amounted to 301 µM in test [5] (read-out: IC50), 101 µM in test [2] and 82.4 µM in test [3]. For the same molecule, the “% Mushroom/Earthy/Fungal Odor Remaining” value in test [6] (setting [10]) worked out at 88.90%; in test [6] (setting [11]) it was 68.50%. The “% Mushroom/Earthy/Fungal Odor” value in test [6] came out at 26.70%.

With “3-acetyloxynonyl acetate; (3-pentyloxan-4-yl) acetate”, the “% Earthy/Moss Odor Remaining” value amounted to 81.10% in test [1] (setting [8]) and 62.50% in test [1] (setting [9]). The “% Earthy/Moss Odor” value in test [1] amounted to 26.20%. Inhibition in test [4] was half-maximal at 295 µM (IC50). Also, the “Inhibition(%)” value in test [4] amounted to 20%.

Molecule `CC1CCCCCCCCCCCCC(=O)C1` (racemic) [(+−)-3-methylcyclopentadecanone] yielded a concentration for half-maximal inhibition (IC50) in test [2] of 159 µM. The “% Mushroom/Earthy/Fungal Odor” value in test [6] is 11.60%. In test [3], the IC50 turned out to be 44 µM and the “% Inhibition” value is reported as 113.50%.

As to `CC1(C)C2C[C@H]3CCC(=O)C=C3[C@@H]1C2` (single isomer, unassigned; (+)), in test [3], it took 194 µM to reach half-maximal inhibition (IC50) and the “% Inhibition” value is 128.51%.

In the case of `O=C1CCCCCCCCCCC(=O)OCCO1` [1,4-dioxacyclohexadecane-5,16-dione], in test [6], the “% Mushroom/Earthy/Fungal Odor” value turned out to be 14.90%. In test [4], inhibition was half-maximal at 136 µM (IC50) and the “Inhibition(%)” value worked out at 33%. In test [3], the half-maximal inhibitory concentration (IC50) worked out at 24.2 µM and the “% Inhibition” value came to 116.54%.

On to `CC1C(=O)c2ccccc2C1(C)C` (stereo not drawn) [2,3,3-trimethyl-2H-inden-1-one], for which, in test [3], the IC50 worked out at 75.6 µM and the “% Inhibition” value came out at 128.39%.

In the case of `CC1C(=O)c2ccccc2C1(C)C` (stereo not drawn) [2,3,3-trimethyl-2~{H}-inden-1-one], the results for the “% Mushroom/Earthy/Fungal Odor Remaining” value in test [6] (setting [10]) and in test [6] (setting [11]) were 94.40% and 57.90%, respectively. For the same molecule, the “% Mushroom/Earthy/Fungal Odor” value in test [6] came out at 16.50%.

As for `CC(=CC=O)CCC(C)=C(C)C` [3,6,7-trimethylocta-2,6-dienal], the “% Earthy/Moss Odor” value in test [1] was determined as 26.90%. Also, the “% Mushroom/Earthy/Fungal Odor” value in test [6] is listed as 16.40%.

Take `CC(C)(C)c1ccc(CCC=O)cc1` [3-(4-tert-butylphenyl)propanal]: the “% Inhibition” value in test [5] stood at 50%. Besides, the concentration for half-maximal inhibition (IC50) in test [5] (read-out: IC50) came to 316 µM.

Regarding `CC(=O)CCC1=C(C)CCCC1(C)C` [4-(2,6,6-trimethylcyclohexen-1-yl)butan-2-one], the “% Earthy/Moss Odor” value in test [1] stood at 30.30%. Further, in test [4], inhibition was half-maximal at 118 µM (IC50) and the “Inhibition(%)” value was 36%. Also, in test [7], the half-maximal inhibitory concentration (IC50) turned out to be 149 µM and the “Inhibition(%)” value is reported as 40%.

On to `CC(C)=CCCC(C)=CCCc1ccncc1` [4-(4,8-dimethylnona-3,7-dienyl)pyridine], for which the “% Mushroom/Earthy/Fungal Odor” value in test [6] amounted to 44.40%. Also, in test [3], the IC50 is 134 µM and the “% Inhibition” value came to 111.87%.

Regarding `CC(=O)OC(C)(C)Cc1ccccc1` [(2-methyl-1-phenylpropan-2-yl) acetate], the “% Earthy/Moss Odor” value in test [1] came out at 34.00%. Further, in test [4], half-maximal inhibition (IC50) was put at 386 µM and the “Inhibition(%)” value worked out at 54%.

In the case of `C[C@@H](CC=O)CCCC(C)(C)O` [(3~{R})-7-hydroxy-3,7-dimethyloctanal], the “% Earthy/Moss Odor Remaining” value in test [1] (setting [8]) is given as 68.20%; in test [1] (setting [9]), 57.20%. Further, the “% Earthy/Moss Odor” value in test [1] came out at 30.30%. Also, the figures for the “% Mushroom/Earthy/Fungal Odor Remaining” value in test [6] (setting [10]) and in test [6] (setting [11]) were 70.00% and 56.50%, respectively. Further, in test [6], the “% Mushroom/Earthy/Fungal Odor” value worked out at 20.70%.

With `CC(=O)OC(C)CC(C)(C)c1ccccc1` (stereo not drawn) [(4-methyl-4-phenylpentan-2-yl) acetate], the 50% inhibitory concentration (IC50) is 59.2 µM in test [2], 627 µM in test [4], 62 µM in test [7] and 61.7 µM in test [3]. Besides, in test [6], the “% Mushroom/Earthy/Fungal Odor” value is 52.70%. In addition, the “Inhibition(%)” value in test [4] amounted to 84%; in test [7], 119%. The “% Inhibition” value in test [3] is given as 98.90%.

As to `C=C(C)[C@@H]1CCC2=CC(=O)C[C@@H](C)[C@]2(C)C1` [(4R,4aS,6R)-4,4a-dimethyl-6-prop-1-en-2-yl-3,4,5,6,7,8-hexahydronaphthalen-2-one], the “% Inhibition” value in test [5] was 50%. The IC50 amounted to 486 µM in test [5] (read-out: IC50) and 36.5 µM in test [7]. Further, the “% Earthy/Moss Odor” value in test [1] turned out to be 70.60%. The “Inhibition(%)” value in test [7] was 39%.

As to `O=C1CCCCCCC/C=C/CCCCCCC1` [(9<I>E</I>)-cycloheptadec-9-en-1-one], in test [3], the midpoint of inhibition, the IC50, lay at 210 µM and the “% Inhibition” value was found to be 97.22%.

On to `CC(C)=CCC[C@@H](C)CC#N` [(−)-(R)-3,7-dimethyl-6-octenenitrile], for which the “% Inhibition” value in test [5] is given as 10%. Besides, the half-maximal inhibitory concentration (IC50) in test [5] (read-out: IC50) worked out at 300 µM.

Turning to `O=C1CCCCCCCCCCC1` [Clyclododecanone, cyclododecanone], in test [3], the concentration for half-maximal inhibition (IC50) was determined as 8.79 µM and the “% Inhibition” value came out at 118.47%.

In test [5], `Cc1ccc(C(C)C)cc1O` [Compound 2-methyl-5-propan-2-ylphenol, 2-methyl-5-propan-2-ylphenol] registered an IC50 of 215 µM. In addition, the “% Earthy/Moss Odor” value in test [1] is listed as 40.10%.

For `CC(CCO)CCc1ccccc1` (stereo not drawn) [Compound 3-methyl-5-phenylpentan-1-ol, 3-methyl-5-phenylpentan-1-ol], in test [1], the “% Earthy/Moss Odor” value is reported as 11.30%.

With `O=C1CCC=CCCCCCCCCCC1` [Cyclopentadec-4-en-1-one], in test [3], the IC50 was determined as 156 µM and the “% Inhibition” value came to 90.98%.

Regarding `O=C1CCCCCCCCCCCCCCO1` [OXACYCLOHEXADECAN-2-ONE], in test [3], the half-inhibitory concentration (IC50) came to 32.1 µM and the “% Inhibition” value was found to be 111.31%.

Regarding `CCCCCO` [Pentanol, 1-, pentanol], in test [3], the midpoint of inhibition, the IC50, lay at 28.3 µM and the “% Inhibition” value was found to be 94.31%.

As for `CCC=CCC=CC=CC(=O)OCC` [ethyl deca-2,4,7-trienoate], the “% Earthy/Moss Odor” value in test [1] was 62.20%. In addition, the “% Mushroom/Earthy/Fungal Odor” value in test [6] was determined as 56.50%.

Turning to `CCCCCC/C=C/C=O` [nonylenic aldehyde], the “% Inhibition” value in test [5] was 30%. Further, the IC50 in test [5] (read-out: IC50) came out at 151 µM.

Regarding `O=C1CCCCCCCCCCCCCCO1` [oxacyclohexadecan-2-one], in test [1], the “% Earthy/Moss Odor” value was found to be 18.70%. Further, the “% Mushroom/Earthy/Fungal Odor” value in test [6] is listed as 13.90%. Besides, in test [4], the IC50 is 291 µM and the “Inhibition(%)” value is reported as 34%.

As for `OCCc1ccccc1` [phenylethylol, 2-PHENYLETHANOL], the “% Earthy/Moss Odor” value in test [1] amounted to 47.50%.
